What was measured:
[1] = tested on: Mycobacterium tuberculosis Erdman (autoluminescent); test: total FIC50 (Loewe) at 50% inhibition, three-drug combination (log2); higher = more antagonistic
Method: (§1)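 DiaMOND equipotent three-drug combination dose responses (10 doses, 1.5- or 2-fold spacing, centred on IC90) against autoluminescent M. tuberculosis Erdman in 8 in vitro models. Read-out is OD600, or luminescence for the intracellular and dormancy models, normalised to untreated wells. Hill-fit Einf, AUC25 and GRinf are potency metrics; FIC50 and FIC90 are total Loewe fractional inhibitory concentrations as log2 (negative = synergy).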

[2] = tested on: Mycobacterium tuberculosis Erdman (autoluminescent); test: total FIC90 (Loewe) at 90% inhibition, three-drug combination (log2); higher = more antagonistic
Method: as §1

[3] = tested on: Mycobacterium tuberculosis Erdman (autoluminescent); test: Einf, fitted maximum growth inhibition of three-drug combination (fraction); higher = stronger maximal inhibition
Method: as §1

[4] = tested on: Mycobacterium tuberculosis Erdman (autoluminescent); test: AUC25, normalised area under dose response up to IC25 (three-drug combination) (fraction (0-1)); higher = more potent at low dose
Method: as §1

[5] = tested on: Mycobacterium tuberculosis Erdman (autoluminescent); test: GRinf, maximum normalised growth rate inhibition (three-drug combination) (unitless (-1 to 1)); higher = less effect (negative = killing)
Method: as §1

COc1nc2ccc(Br)cc2cc1[C@@H](c1ccccc1)[C@@](O)(CCN(C)C)c1cccc2ccccc12 [bedaquiline] + CC(C)/N=c1\cc2n(-c3ccc(Cl)cc3)c3ccccc3nc-2cc1Nc1ccc(Cl)cc1 [clofazimine] + COc1c(N2C[C@@H]3CCCN[C@@H]3C2)c(F)cc2c(=O)c(C(=O)O)cn(C3CC3)c12 [moxifloxacin]
Details | AUC25, [4] | Einf, [3] | GRinf, [5] | total FIC50, [1] | total FIC90, [2]
in vitro model: acidic pH 5.7, time point: constant (~7 days, model-specific) | 0.0874 | 0.698 | -0.457 | 1.07 | –
in vitro model: acidic pH 5.7, time point: terminal (~4-5 doublings, model-specific) | 0.0681 | 0.957 | -0.368 | 0.792 | 0.0494
in vitro model: intracellular J774, time point: constant = terminal | – | 0.974 | -0.345 | – | 0.0395

Details | AUC25, [4] | Einf, [3] | GRinf, [5] | total FIC50, [1] | total FIC90, [2]
in vitro model: butyrate, time point: constant (~7 days, model-specific) | 0.0682 | 0.95 | -0.111 | -0.0983 | -0.596
in vitro model: butyrate, time point: terminal (~4-5 doublings, model-specific) | 0.0514 | 0.979 | -0.117 | 0.0193 | -0.388
in vitro model: cholesterol 0.05 mM, time point: constant (~7 days, model-specific) | 0.0732 | 0.724 | -0.218 | -0.685 | –
in vitro model: cholesterol 0.05 mM, time point: terminal (~4-5 doublings, model-specific) | 0.0839 | 0.927 | -0.23 | 0.399 | -1.01
in vitro model: cholesterol-high 0.2 mM, time point: constant (~7 days, model-specific) | 0.094 | 0.97 | -0.382 | -0.248 | 0.136
in vitro model: cholesterol-high 0.2 mM, time point: terminal (~4-5 doublings, model-specific) | 0.0879 | 1 | -0.535 | 0.0978 | -0.0166
in vitro model: dormancy (butyrate + nitrate, low O2), time point: constant (~7 days, model-specific) | 0.0734 | 0.907 | 0.241 | -0.202 | -0.9
in vitro model: dormancy (butyrate + nitrate, low O2), time point: terminal (~4-5 doublings, model-specific) | 0.0897 | 0.997 | -0.093 | -0.168 | 0.176
in vitro model: standard 7H9 glycerol, time point: constant = terminal | 0.0896 | 0.983 | -0.156 | -0.176 | -0.548
in vitro model: valerate, time point: constant (~7 days, model-specific) | 0.121 | 0.959 | -0.201 | 0.443 | –
in vitro model: valerate, time point: terminal (~4-5 doublings, model-specific) | 0.0856 | 0.968 | -0.1 | 0.482 | 1.71

COc1nc2ccc(Br)cc2cc1[C@@H](c1ccccc1)[C@@](O)(CCN(C)C)c1cccc2ccccc12 [bedaquiline] + CC(C)/N=c1\cc2n(-c3ccc(Cl)cc3)c3ccccc3nc-2cc1Nc1ccc(Cl)cc1 [clofazimine] + NC(=O)c1cnccn1 [pyrazinamide]
Details | AUC25, [4] | Einf, [3] | GRinf, [5] | total FIC50, [1] | total FIC90, [2]
in vitro model: acidic pH 5.7, time point: constant (~7 days, model-specific) | 0.0929 | 0.862 | -0.349 | 0.0846 | –
in vitro model: acidic pH 5.7, time point: terminal (~4-5 doublings, model-specific) | 0.074 | 0.968 | -0.284 | 0.193 | -0.409
in vitro model: intracellular J774, time point: constant = terminal | – | 0.963 | -0.197 | – | -0.109

Details | AUC25, [4] | Einf, [3] | GRinf, [5] | total FIC50, [1] | total FIC90, [2]
in vitro model: butyrate, time point: constant (~7 days, model-specific) | 0.0756 | 0.946 | -0.0789 | -0.624 | -0.916
in vitro model: butyrate, time point: terminal (~4-5 doublings, model-specific) | 0.0582 | 0.977 | -0.0813 | -0.595 | -1.03
in vitro model: cholesterol 0.05 mM, time point: constant (~7 days, model-specific) | 0.0812 | 0.732 | -0.17 | – | –
in vitro model: cholesterol 0.05 mM, time point: terminal (~4-5 doublings, model-specific) | 0.0926 | 0.939 | -0.225 | 0.513 | –
in vitro model: cholesterol-high 0.2 mM, time point: constant (~7 days, model-specific) | 0.06 | 0.921 | -0.227 | -0.0552 | –
in vitro model: cholesterol-high 0.2 mM, time point: terminal (~4-5 doublings, model-specific) | 0.0776 | 1 | -0.556 | 0.345 | -0.162
in vitro model: dormancy (butyrate + nitrate, low O2), time point: constant (~7 days, model-specific) | 0.0795 | 0.924 | 0.201 | -1.18 | -1.48
in vitro model: dormancy (butyrate + nitrate, low O2), time point: terminal (~4-5 doublings, model-specific) | 0.0671 | 0.991 | -0.181 | -0.97 | -1.37
in vitro model: standard 7H9 glycerol, time point: constant = terminal | 0.0904 | 0.961 | -0.0928 | -0.389 | –
in vitro model: valerate, time point: constant (~7 days, model-specific) | 0.103 | 0.884 | 0.0304 | 0.388 | –
in vitro model: valerate, time point: terminal (~4-5 doublings, model-specific) | 0.0692 | 0.929 | 0.0196 | 0.415 | 0.773

COc1nc2ccc(Br)cc2cc1[C@@H](c1ccccc1)[C@@](O)(CCN(C)C)c1cccc2ccccc12 [bedaquiline] + CC(C)/N=c1\cc2n(-c3ccc(Cl)cc3)c3ccccc3nc-2cc1Nc1ccc(Cl)cc1 [clofazimine] + NNC(=O)c1ccncc1 [isoniazid]
Details | AUC25, [4] | Einf, [3] | GRinf, [5] | total FIC50, [1] | total FIC90, [2]
in vitro model: acidic pH 5.7, time point: constant (~7 days, model-specific) | 0.11 | 0.842 | -0.379 | 0.675 | –
in vitro model: acidic pH 5.7, time point: terminal (~4-5 doublings, model-specific) | 0.09 | 0.969 | -0.293 | 0.356 | 0.616
in vitro model: intracellular J774, time point: constant = terminal | – | 0.96 | -0.447 | – | -0.134

Details | AUC25, [4] | Einf, [3] | GRinf, [5] | total FIC50, [1] | total FIC90, [2]
in vitro model: butyrate, time point: constant (~7 days, model-specific) | 0.0622 | 0.945 | -0.1 | -0.0224 | -0.194
in vitro model: butyrate, time point: terminal (~4-5 doublings, model-specific) | 0.0523 | 0.979 | -0.119 | -0.00128 | -0.306
in vitro model: cholesterol 0.05 mM, time point: constant (~7 days, model-specific) | 0.0812 | 0.724 | -0.209 | -0.55 | –
in vitro model: cholesterol 0.05 mM, time point: terminal (~4-5 doublings, model-specific) | 0.0932 | 0.933 | -0.263 | 0.444 | -0.22
in vitro model: cholesterol-high 0.2 mM, time point: constant (~7 days, model-specific) | 0.0765 | 0.955 | -0.396 | 0.226 | 0.206
in vitro model: cholesterol-high 0.2 mM, time point: terminal (~4-5 doublings, model-specific) | 0.0685 | 1 | -0.54 | 0.648 | 0.259
in vitro model: dormancy (butyrate + nitrate, low O2), time point: constant (~7 days, model-specific) | 0.0746 | 0.911 | 0.317 | 0.0126 | -0.362
in vitro model: dormancy (butyrate + nitrate, low O2), time point: terminal (~4-5 doublings, model-specific) | 0.0741 | 0.991 | -0.0967 | -0.283 | -0.303
in vitro model: standard 7H9 glycerol, time point: constant = terminal | 0.0945 | 0.97 | -0.0956 | -0.294 | -0.677
in vitro model: valerate, time point: constant (~7 days, model-specific) | 0.109 | 0.903 | -0.0916 | 0.133 | -0.379
in vitro model: valerate, time point: terminal (~4-5 doublings, model-specific) | 0.0654 | 0.948 | -0.0502 | 0.246 | 0.504

— the supplement of paper PMC8617591
